In patent publication US12568967B2, “Compositions comprising pyridine carboxylate herbicides with synthetic auxin herbicides or auxin transport inhibitors” (priority 2018, dated 2026):

Assays:
[1] = system: Brassica napus (winter rape, BRSNW); assay: Greenhouse postemergence trial BRSNW; format: in vivo; settings: for visual injury, Obs: partner herbicide 560 g/ha alone
Description: (§1) Seeds of the desired test plant species were planted in a 90:10% v/v (volume/volume) mixture of PRO-MIX® BX (Premier Tech Horticulture, Quakertown, PA, USA) and PROFILE® GREENS GRADE™ (Profile Products LLC, Buffalo Grove, IL, USA) planting mixture, which typically has a pH of 5.2 to 6.2 and an organic matter content of at least 50 percent, in plastic pots with a surface area of 103.2 square centimeters (cm^2). […] The plants were grown for 7-36 days (d) in a greenhouse with an approximate 14-hour (h) photo-period which was maintained at about 23° C. during the day and 22° C. during the night. Nutrients and water were added on a regular basis and supplemental lighting was provided with overhead metal halide 1000-Watt lamps as necessary. The plants were employed for testing when they reached the second or third true leaf stage.
(§2) Emulsifiable concentrates of each of each pyridine carboxylate herbicide (Compound A or Compound B) were prepared at 100 grams acid equivalent per liter (g ae/L). The emulsifiable concentrates also included a safener, cloquintocet-mexyl, at 120 grams active ingredient per liter (g ai/L), unless otherwise noted below. An aliquot of each emulsifiable concentrate was placed in a 25 mL glass vial and diluted with an aqueous mixture of 1.25% (v/v) ACTIROB® B esterified rapeseed oil (Bayer Crop Science, Research Triangle Park, NC, USA) or MSO® Concentrate with LECI-TECH® methylated soybean oil (Loveland Products, Loveland, CO, USA) to obtain concentrated stock solutions at the highest application rate for each herbicide, based upon a 12 milliliter (mL) application volume at a rate of 187 liters per hectare (L/ha). The concentrated stock solutions were further diluted with an aqueous mixture of 1.25% v/v ACTIROB® B or MSO® Concentrate with LECI-TECH® to obtain stock solutions at reduced application rates for each herbicide. Spray solutions of the herbicide combinations (Compound A or Compound B plus synthetic auxin herbicide or auxin transport inhibitor) were prepared by adding weighed amounts or aliquots of the synthetic auxin herbicide or auxin transport inhibitor to the stock solutions of Compound A or Compound B to form 12-mL spray solutions in two-way combinations.
(§3) The spray solutions were applied to the plant material with an overhead Mandel track sprayer equipped with 8002E nozzles calibrated to deliver 187 L/ha over an application area of 0.503 square meters (m^2) at a spray height of 18 inches (43 centimeters (cm)) above the average plant canopy. Control plants were sprayed in the same manner with the solvent blank. All pyridine carboxylate herbicide (component a) application rates are given as “g ae/ha” and all synthetic auxin herbicide or auxin transport inhibitor (component b) application rates are given as “g ai/ha.”
(§4) The treated plants and control plants were placed in a greenhouse as described above and watered by sub-irrigation to prevent wash-off of the test compounds. After 20-22 d, the condition of the test plants as compared with that of the control plants was determined visually and scored on a scale of 0 to 100 percent where 0 corresponds to no injury and 100 corresponds to complete kill.

[2] = system: Cirsium arvense (Canadian thistle, CIRAR); assay: Greenhouse postemergence trial CIRAR; format: in vivo; settings: for % visual injury, Obs: applied alone; for visual injury, Obs: partner herbicide 560 g/ha alone
[3] = system: Amaranthus retroflexus (pigweed, AMARE); assay: Greenhouse postemergence trial AMARE; format: in vivo; settings: for % visual injury, Obs: AMARE, applied alone;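 for all read-outs here: Greenhouse-grown plants sprayed at second to third true leaf stage, injury rated by eye after 20-22 d versus solvent-blank sprayed controls, 0 = no injury, 100 = complete kill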
[4] = system: Triticum aestivum (spring wheat, TRZAS); format: in vivo
Description: as §1, §2, §3, §4

[5] = system: Polygonum convolvulus (wild buckwheat, POLCO); assay: Greenhouse postemergence trial POLCO; format: in vivo; settings: POLCO; for % visual injury, Obs: applied alone; for visual injury, Obs: partner herbicide 560 g/ha alone
[6] = system: Salsola kali (Russian thistle, SASKR); assay: Greenhouse postemergence trial SASKR; format: in vivo; settings: SASKR; for % visual injury, Obs: applied alone; for visual injury, Obs: partner herbicide 560 g/ha alone;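 for all read-outs here: greenhouse plants sprayed at second or third true leaf stage, injury rated by eye after 20-22 d against solvent-blank controls, 0 meaning no injury, 100 complete kill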
Description: (§5) The plants were grown for 7-36 days (d) in a greenhouse with an approximate 14-hour (h) photo-period which was maintained at about 23° C. during the day and 22° C. during the night. Nutrients and water were added on a regular basis and supplemental lighting was provided with overhead metal halide 1000-Watt lamps as necessary. The plants were employed for testing when they reached the second or third true leaf stage.
(§6) The emulsifiable concentrates also included a safener, cloquintocet-mexyl, at 120 grams active ingredient per liter (g ai/L), unless otherwise noted below.
(§7) Control plants were sprayed in the same manner with the solvent blank. All pyridine carboxylate herbicide (component a) application rates are given as “g ae/ha” and all synthetic auxin herbicide or auxin transport inhibitor (component b) application rates are given as “g ai/ha.”
as §4

[7] = system: Kochia scoparia (kochia, KCHSC); assay: Greenhouse postemergence trial KCHSC; format: in vivo; settings: KCHSC; for % visual injury, Obs: applied alone; for visual injury, Obs: partner herbicide 560 g/ha alone
Description: as §1, §2, §3, §4

[8] = system: Matricaria chamomilla (wild chamomile, MATCH); assay: Greenhouse postemergence trial MATCH; format: in vivo; settings: MATCH; for % visual injury, Obs: applied alone; for visual injury, Obs: partner herbicide 560 g/ha alone;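 for all read-outs here: greenhouse plants sprayed at second to third true leaf stage, injury rated by eye 20-22 d later versus solvent-blank controls on 0–100 scale, 0 no injury, 100 complete kill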
Description: as §5, §6, §7, §4

[9] = system: Chenopodium album L. (common lambsquarters, CHEAL); assay: Greenhouse postemergence trial CHEAL; format: in vivo;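 note: greenhouse plants sprayed at second to third true leaf stage, injury rated by eye after 20-22 d versus solvent-blank sprayed controls, 0 = no injury, 100 = complete kill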
Description: as §5, §6, §7, §4

[10] = system: Hordeum vulgare (spring barley, HORVS); format: in vivo
Description: as §1, §2, §3, §4

[11] = system: Sinapis arvensis (wild mustard, SINAR); assay: Greenhouse postemergence trial SINAR; format: in vivo; settings: SINAR; for % visual injury, Obs: applied alone; for visual injury, Obs: partner herbicide 560 g/ha alone
[12] = system: Viola tricolor (wild pansy, VIOTR); assay: Greenhouse postemergence trial VIOTR; settings: for visual injury, Obs: partner herbicide 560 g/ha alone;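 for all read-outs here: greenhouse plants sprayed at second to third true leaf stage, injury rated visually after 20-22 d against solvent-blank sprayed controls, 0 meaning no injury and 100 complete kill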
Description: as §1, §2, §3, §4

[13] = system: Matricaria inodora (false chamomile, MATIN); assay: Greenhouse postemergence trial MATIN; format: in vivo; settings: MATIN; for visual injury, Obs: partner herbicide 560 g/ha alone
[14] = system: Capsella bursa-pastoris (shepherd's purse, CAPBP); assay: Greenhouse postemergence trial CAPBP; format: in vivo; settings: CAPBP; for visual injury, Obs: partner herbicide 560 g/ha alone
Description: as §1, §2, §3, §4

[15] = system: Lamium purpureum (purple deadnettle, LAMPU); assay: Greenhouse postemergence trial LAMPU; settings: for visual injury, Obs: partner herbicide 560 g/ha alone
[16] = system: Stellaria media (chickweed, STEME); assay: Greenhouse postemergence trial STEME; format: in vivo; settings: STEME; for visual injury, Obs: partner herbicide 560 g/ha alone
[17] = system: Papaver rhoeas (corn poppy), herbicide-resistant (PAPRH-R); assay: Greenhouse postemergence trial PAPRH-R; format: in vivo; settings: for visual injury, Obs: partner herbicide 560 g/ha alone
[18] = system: Matricaria discoidea (pineapple weed, MATMT); assay: Greenhouse postemergence trial MATMT; format: in vivo; settings: for visual injury, Obs: partner herbicide 560 g/ha alone
[19] = system: Cyanus segetum (cornflower, CENCY); assay: Greenhouse postemergence trial CENCY; format: in vivo; settings: CENCY; for visual injury, Obs: partner herbicide 560 g/ha alone
Description: as §1, §2, §3, §4

[20] = system: Viola arvensis (field violet, VIOAR); assay: Greenhouse postemergence trial VIOAR; format: in vivo; settings: VIOAR; for visual injury, Obs: partner herbicide 560 g/ha alone
[21] = system: Veronica persica (bird's-eye speedwell, VERPE); assay: Greenhouse postemergence trial VERPE; format: in vivo; settings: for visual injury, Obs: partner herbicide 560 g/ha alone
[22] = system: Papaver rhoeas (corn poppy, PAPRH); assay: Greenhouse postemergence trial PAPRH; format: in vivo; settings: PAPRH; for visual injury, Obs: partner herbicide 560 g/ha alone
[23] = system: Anthemis arvensis (field chamomile, ANTAR); assay: Greenhouse postemergence trial ANTAR; format: in vivo; settings: ANTAR; for visual injury, Obs: partner herbicide 560 g/ha alone
[24] = system: Veronica hederifolia (ivyleaf speedwell, VERHE); assay: Greenhouse postemergence trial VERHE; format: in vivo; settings: VERHE; for visual injury, Obs: partner herbicide 560 g/ha alone
Description: as §1, §2, §3, §4

[25] = system: Hordeum vulgare (winter barley, HORVW); assay: Greenhouse postemergence crop phytotoxicity HORVW; format: in vivo; settings: HORVW; partner herbicide 560 g/ha alone
[26] = system: Triticum aestivum (winter wheat, TRZAW); assay: Greenhouse postemergence crop phytotoxicity TRZAW; format: in vivo; settings: TRZAW; partner herbicide 560 g/ha alone
Description: as §1, §2, §3, §4

[27] = c1-2 Compound A 7.5/10, c3 Dicamba 140, c4-5 A 7.5/10 + Dicamba 140 g/ha

COC(=O)c1nc(-c2ccc(Cl)c(OC)c2F)cc(N)c1Cl [Halatvcifen-methyl]
% visual injury, Obs ([1]; BRSNW, applied alone, 3 g/ha): 15%
% visual injury, Obs ([2]; CIRAR, 3 g/ha): 10%
% visual injury, Obs ([3]; 3 g/ha): 68%
% visual injury, Obs ([4]; TRZAS, applied alone, 3 g/ha): 0%
% visual injury, Obs ([5]; 3 g/ha): 20%
% visual injury, Obs ([6]; 3 g/ha): 73%
% visual injury, Obs ([7]; 3 g/ha): 40%
% visual injury, Obs ([8]; 3 g/ha): 5%
% visual injury, Obs ([9]; CHEAL, applied alone, 3 g/ha): 83%
% visual injury, Obs ([10]; HORVS, applied alone, 3 g/ha): 0%
% visual injury, Obs ([11]; 3 g/ha): 40%

CC(Oc1ccc(Cl)cc1Cl)C(=O)O (stereo not shown) [Dichlorprop]
plant injury at 560 g/ha ([1]; Brassica napus, post-emergence, BRSNW, applied alone, 560 g/ha, read-out: % visual injury, Obs): 75%
% visual injury, Obs ([2]; CIRAR, 560 g/ha): 75%
% visual injury, Obs ([12]; VIOTR, applied alone, 560 g/ha): 85%
% visual injury, Obs ([13]; applied alone, 560 g/ha): 60%
% visual injury, Obs ([14]; applied alone, 560 g/ha): 70%
% visual injury, Obs ([15]; LAMPU, applied alone, 560 g/ha): 30%
% visual injury, Obs ([16]; applied alone, 560 g/ha): 30%
% visual injury, Obs ([5]; 560 g/ha): 95%
% visual injury, Obs ([17]; PAPRH-R, applied alone, 560 g/ha): 30%
% visual injury, Obs ([6]; 560 g/ha): 70%
% visual injury, Obs ([7]; 560 g/ha): 75%
% visual injury, Obs ([18]; MATMT, applied alone, 560 g/ha): 10%
% visual injury, Obs ([19]; applied alone, 560 g/ha): 100%
% visual injury, Obs ([8]; 560 g/ha): 50%
% visual injury, Obs ([20]; applied alone, 560 g/ha): 25%
% visual injury, Obs ([21]; VERPE, applied alone, 560 g/ha): 30%
% visual injury, Obs ([22]; applied alone, 560 g/ha): 65%
% visual injury, Obs ([23]; applied alone, 560 g/ha): 95%
% visual injury, Obs ([11]; 560 g/ha): 100%
% visual injury, Obs ([24]; applied alone, 560 g/ha): 60%

Cc1cc(Cl)ccc1OCC(=O)O [MCPA]
visual injury, Obs ([1]; BRSNW): 90%
visual injury, Obs ([2]; CIRAR): 65%
visual injury, Obs ([12]; VIOTR): 60%
visual injury, Obs [13]: 50%
visual injury, Obs [14]: 60%
visual injury, Obs ([15]; LAMPU): 10%
visual injury, Obs [16]: 50%
visual injury, Obs ([4]; TRZAS, partner herbicide 560 g/ha alone): 0%
visual injury, Obs [5]: 30%
visual injury, Obs ([17]; PAPRH-R): 60%
visual injury, Obs [6]: 30%
visual injury, Obs [7]: 30%
visual injury, Obs [25]: 0%
visual injury, Obs ([18]; MATMT): 5%
visual injury, Obs [26]: 0%
visual injury, Obs [19]: 95%
visual injury, Obs [8]: 30%
visual injury, Obs [20]: 20%
visual injury, Obs ([21]; VERPE): 60%
visual injury, Obs [22]: 95%
visual injury, Obs ([10]; HORVS, partner herbicide 560 g/ha alone): 0%
visual injury, Obs [23]: 60%
visual injury, Obs [11]: 100%
visual injury, Obs [24]: 65%

Nc1c(Cl)c(F)nc(OCC(=O)O)c1Cl [Fluroxypyr]
plant injury ([1]; Brassica napus, post-emergence, BRSNW, Fluroxypyr 200 g/ha, read-out: % visual injury Obs): 30%
pest or weed control ([2]; Cirsium arvense, post-emergence, CIRAR, Fluroxypyr 200 g/ha, read-out: % visual injury Obs): 10%
pest or weed control at 200 g/ha ([12]; Viola tricolor, post-emergence, read-out: % visual injury Obs): 65%
pest or weed control ([13]; Tripleurospermum inodorum, post-emergence, Fluroxypyr 200 g/ha, read-out: % visual injury Obs): 65%
pest or weed control ([14]; Capsella bursa-pastoris, post-emergence, Fluroxypyr 200 g/ha, read-out: % visual injury Obs): 10%
pest or weed control at 200 g/ha ([15]; Lamium purpureum, post-emergence, read-out: % visual injury Obs): 65%
pest or weed control ([16]; Stellaria media, post-emergence, Fluroxypyr 200 g/ha, read-out: % visual injury Obs): 95%
pest or weed control ([5]; Fallopia convolvulus, post-emergence, Fluroxypyr 200 g/ha, read-out: % visual injury Obs): 50%
PAPRH-R % visual injury Obs ([17]; Fluroxypyr 70 g/ha (Table 38)): 25%
PAPRH-R % visual injury Obs ([17]; Fluroxypyr 100 g/ha (Table 38)): 25%
pest or weed control ([17]; Papaver rhoeas, post-emergence, PAPRH-R, Fluroxypyr 200 g/ha, read-out: % visual injury Obs): 10%
pest or weed control ([6]; Salsola kali, post-emergence, Fluroxypyr 200 g/ha, read-out: % visual injury Obs): 60%
pest or weed control ([7]; Bassia scoparia, post-emergence, Fluroxypyr 200 g/ha, read-out: % visual injury Obs): 70%
MATMT % visual injury Obs ([18]; Fluroxypyr 70 g/ha (Table 38)): 10%
MATMT % visual injury Obs ([18]; Fluroxypyr 100 g/ha (Table 38)): 10%
pest or weed control ([18]; Matricaria discoidea, post-emergence, MATMT, Fluroxypyr 200 g/ha, read-out: % visual injury Obs): 0%
pest or weed control ([19]; Centaurea cyanus, post-emergence, Fluroxypyr 200 g/ha, read-out: % visual injury Obs): 100%
pest or weed control ([8]; Matricaria chamomilla, post-emergence, Fluroxypyr 200 g/ha, read-out: % visual injury Obs): 10%
pest or weed control ([20]; Viola arvensis, post-emergence, Fluroxypyr 200 g/ha, read-out: % visual injury Obs): 10%
pest or weed control ([21]; Veronica persica, post-emergence, VERVE, Fluroxypyr 200 g/ha, read-out: % visual injury Obs): 60%
pest or weed control ([22]; Papaver rhoeas, post-emergence, Fluroxypyr 200 g/ha, read-out: % visual injury Obs): 0%
pest or weed control ([23]; Anthemis arvensis, post-emergence, Fluroxypyr 200 g/ha, read-out: % visual injury Obs): 60%
pest or weed control ([11]; Mutarda arvensis, post-emergence, Fluroxypyr 200 g/ha, read-out: % visual injury Obs): 90%
pest or weed control ([24]; Veronica hederifolia, post-emergence, Fluroxypyr 200 g/ha, read-out: % visual injury Obs): 10%

Cc1cc(Cl)ccc1OCC(=O)O [MCPA-DMA, MCPA-dimethylammonium, reference compound]
BRSNW % visual injury Obs ([1]; MCPA-DMA 400 g/ha (Table 37)): 83%
CIRAR % visual injury Obs ([2]; in vivo): 60%
% visual injury ([3]; in vivo): 63%
% visual injury (crop phytotoxicity) ([4]; Triticum aestivum (spring wheat, TRZAS), in vivo): 0%
TRZAS % visual injury Obs ([4]; in vivo): 0%
% visual injury ([9]; in vivo): 75%
% visual injury (crop phytotoxicity) ([10]; Hordeum vulgare (spring barley, HORVS), in vivo): 0%
HORVS % visual injury Obs ([10]; in vivo): 0%

COc1c(Cl)ccc(Cl)c1C(=O)O [Dicamba, dicamba, reference compound]
visual injury, Obs ([1]; BRSNW): 70%
plant injury at 140 g/ha ([1]; Brassica napus, post-emergence, BRSNW, applied alone, 140 g/ha, read-out: % visual injury, Obs): 23%
visual injury, Obs ([2]; CIRAR): 70%
visual injury, Obs ([12]; VIOTR): 20%
visual injury, Obs [13]: 70%
% visual injury, Obs ([3]; 140 g/ha): 60%
% visual injury [3, 27]: 50%
visual injury, Obs [14]: 60%
visual injury, Obs ([15]; LAMPU): 20%
visual injury, Obs [16]: 75%
visual injury, Obs [5]: 100%
visual injury, Obs ([17]; PAPRH-R): 30%
visual injury, Obs [6]: 65%
visual injury, Obs [7]: 80%
visual injury, Obs ([18]; MATMT): 25%
visual injury, Obs [19]: 100%
% visual injury, Obs ([8]; 140 g/ha): 3%
visual injury, Obs [8]: 35%
visual injury, Obs [20]: 30%
visual injury, Obs ([21]; VERPE): 60%
visual injury, Obs [22]: 30%
% visual injury [9, 27]: 48%
visual injury, Obs [23]: 100%
visual injury, Obs [11]: 85%
visual injury, Obs [24]: 75%
